# Assay results from patent US20160157490A1, “COMPOSITIONS COMPRISING A GERMINANT AND AN ANTIMICROBIAL AGENT” (priority 2010, published 2016).
# System: C. difficile spores
# Assay: Germination efficacy testing of germinant solution with antimicrobial and preservative (neutraliser, heat shock or ice)
# Format: cell-based
# Details: for effect on the germinant solution / germination: antimicrobial added to germinant solution; for initiation of germination / sporicidal activity: without amino acids and taurocholate
# Method: The solution was heated and mixed thoroughly to dissolve all of the components before filtration through a pore size of 0.2 μm for sterilization. (This solution is double the working strength as it is diluted 1:2 during the experiment).
# The pH was adjusted to 7 and was autoclaved to sterilize.
# For the control, 100 μL of sterilized distilled water was mixed with 100 μL of C. difficile spore suspension. Spore suspensions were also incubated with solutions containing benzalkonium chloride and Tris buffer (without amino acids or taurocholate), benzyl alcohol with Tris buffer (without amino acids and taurocholate) and a solution containing the five amino acids and taurocholate (with no antimicrobials). […] (miniMACS Anaerobic Workstation (Don Whitley Scientific Ltd)).
Molecule,effect on the germinant solution / germination,initiation of germination,sporicidal activity
N=C(NCCCCCCNC(=N)NC(=N)Nc1ccc(Cl)cc1)NC(=N)Nc1ccc(Cl)cc1.O=C(O)[C@H](O)[C@@H](O)[C@H](O)[C@H](O)CO.O=C(O)[C@H](O)[C@@H](O)[C@H](O)[C@H](O)CO [cholorohexidine],inhibit the germinant solution,–,–
benzalkonium chloride,do not affect germination,did not initiate germination,not sporicidal
OCc1ccccc1 [benzyl alcohol],do not affect germination,did not initiate germination,not sporicidal
O=C(O)CN(CCN(CC(=O)O)CC(=O)O)CC(=O)O [EDTA],inhibit the germinant solution,–,–
